Test results: patent US20070142462A1, “Method of Treating Cancer” (The University of Utah, priority 2000, published 2007)
One block for each compound: values may come before it.

Experiments:
Assay type in all cases: cell-based, human
[1] = tested on: GRO-α; assay: GRO-α ELISA in culture medium; conditions: M1619; dicumarol 24 hours
Experimental: To study the impact of inhibiting NF-κB activation with antioxidants, cellular expression of the autocrine growth factor GRO-α was studied in near confluent monolayers of M1619 cells grown in 24-well plates. Cells were either treated with fresh complete medium or fresh medium containing 25 μM ebselen. After 24 hours, supernatants were harvested, microcentrifuged to remove cellular debris and frozen at −20° C. until GRO-α measurement as outlined below.
Measurement of GRO-α Expression. GRO-α was measured in culture medium from untreated and ebselen treated cells using a commercial ELISA purchased from R&D Systems, Minneapolis, Minn. This assay could not be used to detect GRO-α production by catalase treated cells because of interference in the peroxidase-based ELISA by catalase in the cell supernatant.
[…]. After 24 hours, GRO-α concentration was measured in media.

[2] = tested on: M1619 cells; assay: Ferricytochrome c reduction (O2− generation) by M1619 cells; conditions: 160 μM ferricytochrome c; capsaicin 100 μM; dicumarol 250 μM pre-treatment 60 min; other inhibitors as
Experimental: Measurement of Reactive Oxygen Species. Superoxide (O2^−) generation was measured by the technique of superoxide dismutase (SOD) inhibitable reduction of ferricytochrome c, employing a modification allowing absorbance reading with an automatic enzyme immunoassay reader. See Friovich, I. in Handbook of Methods for Oxygen Radical Research (Greenwald, R. A., ed.), pp 121-122, CRC Press, Boca Raton, Fla., 1985; Pick, E. et al. J. Immunol. Methods 46:211-226 (1981). Confluent cells grown on 24-well plates were washed with DPBS, and incubated in 5% CO2/air at 37° C. with 160 μM ferricytochrome c in total volume of 550 μl of sodium bicarbonate-containing Krebs-Heinseleit buffer, or Hanks Balanced Salt Solution (HBSS), with and without copper-zinc SOD (1,000 units/ml). See Nozik-Grayck, et al., Am J. Physiol. 273 (17):L296-L304 (1997). The absorbance of each well was measured at 550 nm initially and 3-24 hours later using an ELx800 UV automated microplate reader (Biotek Instruments, Highland Park, Vt.). Monolayers were then washed with DPBS, and cell protein was measured using the BCA protein assay (Pierce). O2^− generation, normalized to cell protein, was computed from the Beer-Lambert relationship, as the quotient of SOD-inhibitable increase absorbance over time divided by the difference between the molar extinction coefficients for ferricytochrome c and ferrocytochrome c (ΔEM=2.1×10^4 M^−1 cm^−1). See Bashford, in Spectrophotometry & Spectrofluorimetry. A Practical Approach (Harris, D. A., and Bashford, C. L., eds) pp. 1-22, IRL Press, Washington, D.C., 1987; Friovich, I. in Handbook of Methods for Oxygen Radical Research (Greenwald, R. A., ed) pp 121-122, CRC Press, Boca Raton, Fla., 1985. […].
A. Capsaicin inhibits ferricytochrome c reduction. M1619 cells grown on 24-well plates were washed with DPBS, and incubated in 5% CO2/air at 37° C. with 160 μM ferricytochrome c in total volume of 550 μl of HBSS with or without the quinone analog capsaicin (100 μM final concentration) added in 5 μl/ml of ethanol. The absorbance of each well was measured at 550 nm initially and 3 hours later using an ELx800 UV automated microplate reader (Biotek Instruments, Highland Park, Vt.). The results are illustrated in FIG. 8A.
. […]. The results are illustrated in FIG. 9A.

[3] = tested on: p65 component of NF-κB; assay: Immunohistochemical localization of p65 in M1619 cells; conditions: 24 hours, catalase 3,000 U/ml, apocynin 150 μg/ml, dicumarol 250 μM
Experimental: The effect of antioxidants on nuclear activation of NF-κB was studied by incubating near confluent (70%) cell cultures with antioxidant treatments for 1-48 hours. Nuclear protein was harvested, and EMSAs were performed using DNA consensus binding sequences, or nuclear translocation of the p65 component of NF-κB was studied by immunoperoxidase staining, as outlined below.
Immunohistochemical Localization of NF-κB. Cells grown on sterile coverslips and treated with catalase 3,000 U/ml, apocynin 150 μg/ml, or DPBS or DMSO vehicles for 24 h were fixed for 20 min on ice with 4% paraformaldehyde in DPBS with protease inhibitors, PI [Sigma protease inhibitor cocktail, 10 μl/ml, containing 4-(2-aminoethyl)benzensulfonyl fluoride (AEBSF), pepstatin A, trans-epoxysuccinyl-L-leucylamindo-(guanidino)butane (E-64), bestatin, leupeptin and aprotinin]. Cells were permeabilized by treating for 2 min with 0.1% NP-40 in DPBS/PI, washed once with cold DPBS and fixed as before for 10 min. Coverslips were incubated in 3% hydrogen peroxide for 30 min to suppress any remaining peroxidase, and washed three times in cold DPBS. The permeabilized and fixed cells were blocked for 2 hours with 2% BSA in DPBS on ice and incubated overnight at 4° C. with 1 μg/ml of anti-p65 antibody (Santa Cruz) diluted in 0.1% BSA/DPBS. Unbound anti-p65 was washed away with 2% BSA/DPBS and bound antibody was stained by incubation with biotinylated goat anti-rabbit immunoglobulin diluted 1:50 in 0.1% BSA/DPBS for 45 min on ice. Excess secondary antibody was washed away by 3 washes with 2% BSA/DPBS on ice. After washing, the cells were incubated with a streptavidin-biotin-peroxidase complex at room temperature for 1 hr, washed again, and incubated in 0.03% wt/vol 3-3′diaminobenzidine with 0.003% vol/vol hydrogen peroxide until a brown reaction product could be seen. Cells were then counterstained with eosin and mounted on glass slides before viewing under light microscopy. […]

[4] = tested on: NF-κB; assay: EMSA of constitutive nuclear NF-κB DNA binding, M1619; conditions: 24 hours, catalase 3,000 U/ml, NAC 20 mM, Ebselen 25 μM, dicumarol 250 μM
From the text: Electrophoretic Mobility Shift Assays (EMSAs). […] J. Respir.

[5] = tested on: breast carcinoma MDA-MB-453 cells; assay: MTT proliferation assay, MDA-MB-453 breast carcinoma; conditions: Homo sapiens, MDA-MB-453; Ebselen 25 μM; 10% FBS; 72 hours; mean±SE vs FBS+DMSO control; read-out: Percent Growth Inhibition
Experimental: (§1) Measurement of Proliferation in Cell Cultures. […] This assay empirically distinguishes between dead and living cells.
(§2) Cell Culture Treatments. The effect of antioxidant treatments on proliferation of malignant cell lines was studied in cultures stimulated with 10% FBS. Cell numbers were quantitated by the MTT assay 24-72 hours later. In some experiments, antioxidants were added immediately after cells were plated. In other experiments, cells were plated and allowed to grow for 24 hours before fresh media with antioxidants was added, and cell numbers were studied by the MTT assay 48 hours later.
(§3) Cells stimulated with 10% FBS were plated at a density of 50,000 cells per well. DMSO and antioxidants were added to cell wells at the indicated concentrations. […] Each value represents a mean of at least 4 experiments.

[6] = tested on: LNCaP.FGC prostate adenocarcinoma cells; assay: MTT proliferation assay, LNCaP.FGC prostate adenocarcinoma; conditions: Homo sapiens; Ebselen 25 μM; 10% FBS; 48 hours; mean±SE vs FBS+DMSO control; read-out: Percent Growth Inhibition
Experimental: as §1, §2, §3

[7] = tested on: Melanoma M1585 cells; assay: MTT proliferation assay, M1585 melanoma; conditions: Homo sapiens; Ebselen 25 μM; 10% FBS; 48 hours; mean±SE vs FBS+DMSO control; read-out: Percent Growth Inhibition
Experimental: as §1, §2, §3

[8] = tested on: M1619 melanoma cells; assay: MTT proliferation assay, M1619 melanoma; conditions: for Proliferation of M1619 melanoma cells (MTT, A540): 10% FBS, agents added at plating, 48 hours (ebselen 72 hours)
Experimental: Measurement of Proliferation in Cell Cultures. Proliferation of cultured cells was quantitated using a previously reported calorimetric method based upon metabolic reduction of the soluble yellow tetrazolium dye 3-[4,5-dimethylthiazol]-2yl-2,5-diphenyl tetrazolium bromide (MTT) to its insoluble purple formazan by the action of mitochondrial succinyl dehydrogenase. […] This assay empirically distinguishes between dead and living cells. For proliferation studies, cells were seeded into 24-well uncoated plastic plates (Costar) at 15,000-50,000 cells per well and cultured with respective media and mitogens. After 24-96 hours, medium was removed, cells were washed twice with 1 ml of sterile Dulbecco's modified phosphate buffered saline without Ca^2+ or Mg^2+ (DPBS), the medium was replaced with 1 ml/well fresh medium containing 100 μg/ml MTT, and plates were incubated an additional hour. MTT-containing medium was removed, 0.5 ml dimethylsulfoxide (DMSO) was added to each well, and the absorbance of the solubilized purple formazan dye was measured at 540 nm. A total of 4-6 wells was studied at each treatment condition. Preliminary studies were performed with 50-200 μg/ml MTT incubated for 15 min to 3 hours to determine the optimum concentration and incubation time at which the rate of conversion was linear and proportional to the number of cells present.
as §2
A. M1619 melanoma cells stimulated with 10% fetal bovine serum (FBS) were plated at a density of 50,000 cells per well and antioxidants were added to wells at the indicated concentrations (mM or U/ml). After 48 hours, proliferation was quantitated by assessing the cell number-dependent reduction of the soluble yellow tetrazolium dye 3-[4,5-dimethylthiazol]-2yl-2,5-diphenyl tetrazolium bromide (MTT) to its insoluble formazan, measured as the absorbance at 540 nm (A540). The antioxidants tested included no antioxidant (control, i.e., FBS alone), 1000 U/ml SOD, 20 mM NAC, 500 U/ml, 1000 U/ml, and 3000 U/ml of catalase, and boiled […] catalase.
B. In a separate experiment, 2 μl/well of DMSO (served as control), 5 μM, 10 μM, and 25 μM Ebselen were tested on M1619 melanoma cells as described above, except that the cells were cultured for 72 hours before proliferation was measured.
C. 3000 U/ml Catalase, 2 μl/well DMSO, 25 μM Ebselen, and 50 μM Ebselen were tested as described above except that the compounds were added 24 hours after M1619 cells were plated. After the addition of antioxidants, the cells were incubated for an additional 48 hours and cell proliferation was quantitated. […]

[9] = tested on: Adeno-squamous lung carcinoma NCI-H596 cells; assay: MTT proliferation assay, NCI-H596 lung carcinoma; conditions: Homo sapiens, NCI-H596; Ebselen 25 μM; 10% FBS; 48 hours; mean±SE vs FBS+DMSO control; read-out: Percent Growth Inhibition
Experimental: as §1, §2, §3

Structure (SMILES): O=c1oc2ccccc2c(O)c1Cc1c(O)c2ccccc2oc1=O [Dicumarol, 3,3′-methylenebis[4-hydroxy-2H-1-benzopyran-2-one]]
- GRO-α protein expression [1]: dramatic reduction
- ferricytochrome c reduction by M1619 cells [2]: significantly decreased
- anti-p65 staining in nuclei (nuclear translocation of NF-κB) [3]: little staining in nuclei

- constitutive NF-κB DNA binding activity in nuclear protein [4]: substantially reduced
Structure (SMILES): O=c1c2ccccc2[se]n1-c1ccccc1 [Ebselen, 2-phenyl-1,2-benzisoselenazol-3(2H)-one]
- inhibition at 25 µM [5]: 69 ± 4%
- inhibition at 25 µM [6]: 100%
- inhibition at 25 µM [7]: 94 ± 2%
- Proliferation of M1619 melanoma cells (MTT, A540) [8]: dramatically reduced
- Proliferation of M1619 melanoma cells, agents added 24 hours after plating ([8]; catalase 3000 U/ml, Ebselen 25 and 50 μM, further 48 hours): antiproliferative
- inhibition at 25 µM [9]: 57 ± 2%

Structure (SMILES): CC(=O)N[C@@H](CS)C(=O)O [N-acetylcysteine]
- Proliferation of M1619 melanoma cells (MTT, A540) [8]: reduced proliferation

Structure (SMILES): Oc1ncnc2[nH]ncc12 [allopurinol]
- ferricytochrome c reduction by M1619 cells [2]: Neither cellular reduction of ferricytochrome c nor proliferation were reduced
- Proliferation of M1619 melanoma cells (MTT, A540) [8]: Neither cellular reduction of ferricytochrome c nor proliferation were reduced

Structure (SMILES): COc1cc(C(C)=O)ccc1O [apocynin, 4′-hydroxy-3′-methoxy-acetophenone]
- Proliferation of M1619 melanoma cells (MTT, A540) [8]: significantly reduced proliferation
- anti-p65 staining in nuclei (nuclear translocation of NF-κB) [3]: little staining in nuclei

Structure (SMILES): COc1cc(CNC(=O)CCCC/C=C/C(C)C)ccc1O [capsaicin, 8-methyl-N-vanillyl-6-noneamide]
- ferricytochrome c reduction by M1619 cells [2]: significantly decreased
- Proliferation of M1619 melanoma cells (MTT, A540) [8]: significantly reduced proliferation

Structure (SMILES): CN/C(=N/CCSCc1nc[nH]c1C)NC#N [cimetidine]
- ferricytochrome c reduction by M1619 cells [2]: Neither cellular reduction of ferricytochrome c nor proliferation were reduced
- Proliferation of M1619 melanoma cells (MTT, A540) [8]: Neither cellular reduction of ferricytochrome c nor proliferation were reduced

Structure (SMILES): c1ccc2c(c1)[I+]c1ccccc1-2 [diphenylene iodonium chloride]
- Proliferation of M1619 melanoma cells (MTT, A540) [8]: significantly reduced proliferation

Structure (SMILES): COc1ccc2c(c1)c(CC(=O)O)c(C)n2C(=O)c1ccc(Cl)cc1 [indomethacin]
- ferricytochrome c reduction by M1619 cells [2]: Neither cellular reduction of ferricytochrome c nor proliferation were reduced
- Proliferation of M1619 melanoma cells (MTT, A540) [8]: Neither cellular reduction of ferricytochrome c nor proliferation were reduced

Structure (SMILES): C=C(C)[C@H]1Cc2c(ccc3c2O[C@@H]2COc4cc(OC)c(OC)cc4[C@@H]2C3=O)O1 [retenone]
- ferricytochrome c reduction by M1619 cells [2]: Neither cellular reduction of ferricytochrome c nor proliferation were reduced
- Proliferation of M1619 melanoma cells (MTT, A540) [8]: Neither cellular reduction of ferricytochrome c nor proliferation were reduced

Structure (SMILES): N=C(NCCC[C@H](N)C(=O)O)N[N+](=O)[O-] [ω-nitro-L-arginine, Nω-nitro-L-arginine]
- ferricytochrome c reduction by M1619 cells [2]: Neither cellular reduction of ferricytochrome c nor proliferation were reduced
- Proliferation of M1619 melanoma cells (MTT, A540) [8]: Neither cellular reduction of ferricytochrome c nor proliferation were reduced
